The text below walks through data of patent US20050032827A1, “Sigma ligands for neuronal regeneration and functional recovery” (priority 2003, published 2005).

One data set addresses sigma-1 site (Homo sapiens, UniProt Q99720). The settings on record: (+) isomers of benzomorphan opiates; Hellewell and Bowen (1990); cited from earlier work.
Data set [1] relates to NMDA-induced toxicity and seizures. The settings on record: in vivo models; Pontecorvo et al. (1991); cited from earlier work.
Data set [2] concerns SHR (spontaneous hypertensive) rats, stroke by MCA occlusion. The experiment in a line: Rotating pole test after MCA occlusion. The settings on record: 0.03-10 mg/kg s.c. or p.o. from two days after MCAO for 2-8 weeks; saline control. The class given is in vivo, rat. The source says:
(§1) Male 3 months old SHR (spontaneous hypertensive) rats are used for induction of stroke by MCA occlusion. This is the preferred strain since most stroke patients are hypertensive. The animals are anesthetized with Methohexital and a small craniectomy is made above the zygmotic arch to expose the middle cerebral artery, which is occluded with a 10-0 monofilament nylon thread distal to the origin of the striatal branches. The rats are not intubated and no catheters are inserted. Following MCA occlusion a large and reproducible infarct is obtained, leading to a robust sensorimotor deficit. The animals are kept on a 6 hr light/18 h dark cycle with free access to food and water. At two days after the MCAO the rats are treated with the compound I, II, III, IV, V, VI, VII, VIII, or IX (0.03-10 mg/kg) s.c. or p.o. and a control group is given saline for 2-8 weeks. At 2, 4, 6 and 8 weeks animals are tested in the rotating pole or cylinder test
A score of 6-0 is given for each direction: • 6, the animal crosses the pole with no foot slips; • 5, the animal crosses the pole with a few foot slips; • 4, the animal crosses the pole, slipping 50% of the footsteps; • 3, the animal crosses the pole with more than 50% foot slips; • 2, the animal walks a bit and then rotates around the pole; • 1, the animal rotates around the pole without crossing it; • 0, the animal falls off the pole. Cylinder Test for Asymmetric Use of Forelimb Use in Spontaneous Rearing

For data set [3] the test system is unchanged. As to the kind of experiment: Cylinder test for asymmetric forelimb use after MCA occlusion. Type of data set: in vivo, rat. As to conditions: 0.03-10 mg/kg s.c. or p.o. from two days after MCAO for 2-8 weeks; saline control.
Text: as §1
The cylinder test (modified from Schallert and Tillerson (Innovative models of CNS disease: from molecule to therapy. Clifton, N.J., Humana, 1999) is used to quantify the forelimb use for rearing on the cylinder wall. The rats are monitored as they move freely in a 20-cm-wide clear glass cylinder. Contacts made by each forepaw with the cylinder wall while rearing are scored by a blinded observer. A total of 20 contacts are recorded for each animal, and the number of impaired (left), both, and non-impaired forelimb contacts as percentage of total contacts is calculated. Baseline for rats is achieved by measuring the contacts made by each forepaw before MCAO.

Data set [4] relates to cultured rat retinal neurons. As to conditions: Senda et al. (1998); cited from earlier work.
For the next data set, the target named is sigma-1 receptor (Homo sapiens, UniProt Q99720). As to conditions: literature reports; cited from earlier work.
sigma-1 receptor, sequence (Q99720 whole entry): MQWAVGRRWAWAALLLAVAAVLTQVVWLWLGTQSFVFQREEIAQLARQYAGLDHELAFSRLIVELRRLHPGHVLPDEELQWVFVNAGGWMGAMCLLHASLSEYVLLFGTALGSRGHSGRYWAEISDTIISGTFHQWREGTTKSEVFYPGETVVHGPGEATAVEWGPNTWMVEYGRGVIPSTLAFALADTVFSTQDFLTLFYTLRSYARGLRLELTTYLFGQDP
Data set [5] deals with rat primary neuronal cultures. The settings on record: Nakazawa et al. (1998); cited from earlier work.
For data set [6] the following is noted: hydrohalide salts, in particular the hydrochloride salt; WO 99/24436; cited from earlier work.
In a further data set the target is sigma-2 receptor (Homo sapiens, UniProt Q5BJF2). The settings on record: Perregaard et al. (1995); cited from earlier work.
sigma-2 receptor, sequence (Q5BJF2 whole entry, species assumed): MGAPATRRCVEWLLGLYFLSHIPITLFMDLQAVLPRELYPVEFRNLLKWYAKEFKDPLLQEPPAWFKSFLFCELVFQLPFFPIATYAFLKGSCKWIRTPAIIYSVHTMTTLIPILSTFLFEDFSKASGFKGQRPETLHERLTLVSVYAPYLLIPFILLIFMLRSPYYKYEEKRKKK
The test system of data set [7] is hypertensive rats exposed to permanent middle artery occlusion (MCAO), a model of ischemic stroke. The experiment in a line: Morris water maze after permanent MCAO. The class given is in vivo, rat. As to conditions: for Latency to Find Hidden Platform, TRIAL 3 / Latency to Find Hidden Platform, TRIAL 4 / Latency to Find Hidden Platform, TRIAL 5 / Latency to Find Hidden Platform, TRIAL 1 / Latency to Find Hidden Platform, TRIAL 2 / Path Length to Find Hidden Platform, TRIAL 1 / Path Length to Find Hidden Platform, TRIAL 2 / Path Length to Find Hidden Platform, TRIAL 3 / Path Length to Find Hidden Platform, TRIAL 4 / Path Length to Find Hidden Platform, TRIAL 5: 14 days from day 2 after MCAO, tested day 35; for Latency to Find Hidden Platform, TRIAL 1 / Latency to Find Hidden Platform, TRIAL 2 / Path Length to Find Hidden Platform, TRIAL 1 / Path Length to Find Hidden Platform, TRIAL 2 / Path Length to Find Hidden Platform, TRIAL 3 / Path Length to Find Hidden Platform, TRIAL 4 / Path Length to Find Hidden Platform, TRIAL 5: value (SEM). How it is done:
The Morris water maze was used to assess functional recovery, in particular recovery in a cognitive skill, in hypertensive rats after exposure to permanent middle artery occlusion (MCAO), a model of ischemic stroke.
Forty three hypertensive rats were exposed to permanent middle artery occlusion (MCAO). Starting at two days after occlusion and continuing for 14 days, Siramesine was administered p.o. in doses of 0.3 mg/kg (14 rats) or 1.0 mg/kg (14 rats). In a control group (15 rats), vehicle only was administered. On day 35 after permanent MCAO, the rats were assessed for their performance in the Morris Water Maze Test.
In the test, the rats were given a series of 6 trials, 1 hour apart in a large dark-colored tank (200 cm in ) filled with clear water at a temperature of 22.0±1.5° C. A 12×12-cm submerged platform (2 mm below the water surface) was placed in the northwest quadrant of the pool. The release point was always the southern end of the pool. The rats were lowered into the pool facing the wall, and then released. Each rat was given a maximum of 90 seconds to find the submerged platform. […] After remaining on the platform for 20 seconds, the rat was removed and placed in a dry cage. One hour later, each rat was given a second trial, using the same release position and platform position, to measure the rat's retention of the platform location. The process was repeated a total of 5 times for each rat, each trial 1 hour apart. The swim paths of the rats were recorded with a computer tracking system and the latency and the length of swim path to find the hidden platform were analyzed.

A further data set has as its system ischemia in gerbils. As to conditions: cited from earlier work.
For data set [8], the system named is NMDA-type of glutamate receptors. The settings on record: cited from earlier work.

sigma-1 site, sequence (Q99720 whole entry): as the sequence (Q99720 whole entry) above

For `CC(C)=CCN1CCC2(C)c3cc(O)ccc3CC1C2C` (single isomer, unassigned; (+)) [(+)pentazocine], the “affinity for the sigma-1 site compared to the sigma-2 site” value on sigma-1 site is “nearly two orders of magnitude higher affinity for the sigma-1 site”.
`OC(CCCN1CCN(c2ncc(F)cn2)CC1)c1ccc(F)cc1` (stereo not drawn) [BMY-14802]: the “protective effects against NMDA-induced toxicity and seizures” value (“protective effects” below) in data set [1] is “protective effects against NMDA-induced toxicity and seizures”.
In the case of `O=C(OCCN1CCOCC1)C1(c2ccccc2)CCCCC1` [III], the “performance in rotating pole test versus control” value in [2] is given as “perform better than the group 1 control animals”. Besides, the “performance in cylinder test versus control” value in data set [3] is listed as “perform better than the group 1 control animals”.
Regarding `O=C(NC1CCN(Cc2ccccc2)CC1)c1ccc(I)cc1` [II], the “performance in rotating pole test versus control” value in [2] is recorded as “perform better than the group 1 control animals”. Besides, the “performance in cylinder test versus control” value in data set [3] is reported as “perform better than the group 1 control animals”.
Consider `COc1ccc(CCN2CCN(CCCc3ccccc3)CC2)cc1OC` [IV], for which the “performance in rotating pole test versus control” value in data set [2] is on record as “perform better than the group 1 control animals”. In data set [3], the “performance in cylinder test versus control” value was “perform better than the group 1 control animals”.
Turning to `COc1ccc(CN2CCN(Cc3ccccc3)CC2)c(O)c1OC` [IX], in [2], the “performance in rotating pole test versus control” value is reported as “perform better than the group 1 control animals”. Besides, in data set [3], the “performance in cylinder test versus control” value was “perform better than the group 1 control animals”.
As for `COc1ccc(CCN2CCN(CCCc3ccccc3)CC2)cc1OC` [SA4503, 1-(3,4-dimethoxyphenethyl)-4-(3-phenylpropyl) piperazine], the “activity against glutamate neurotoxicity” value in [4] is given as “active against glutamate neurotoxicity”. Moreover, the “sigma-1 receptor functional activity” value at sigma-1 receptor is recorded as “selective sigma-1 agonist”. Moreover, the “suppression of hypoxia/hypoglycemia-induced neurotoxicity” value in data set [5] is listed as “significantly suppress hypoxia/hypoglycemia-induced neurotoxicity”.
As to `Fc1ccc(-n2cc(CCCCN3CCC4(CC3)OCc3ccccc34)c3ccccc32)cc1` [Siramesine, 1′-[4-[1-(4-fluorophenyl)-1H-indol-3-yl]-1-butyl] spiro [isobenzofuran-1(3H),4′-piperidine]], the “performance in rotating pole test versus control” value in data set [2] is on record as “perform better than the group 1 control animals”. The “performance in cylinder test versus control” value in data set [3] is recorded as “perform better than the group 1 control animals”. For the same compound, the bioavailability result in [6] is listed as “good bioavailability”. Also, the “sigma-2 receptor functional activity” value at sigma-2 receptor is reported as “selective sigma-2 agonist”. For the same compound, the “sigma-1 receptor functional activity” value at sigma-1 receptor is “displays activity towards the sigma 1 receptor”. Moreover, in [7] (0.3 mg/kg p.o.), the “Latency to Find Hidden Platform, TRIAL 3” value was found to be 47.0 s; the “Latency to Find Hidden Platform, TRIAL 4” value came to 33.1 s; the “Latency to Find Hidden Platform, TRIAL 5” value worked out at 15.66 s; the “Latency to Find Hidden Platform, TRIAL 1” value is reported as 72.4 (7.3) SECONDS. Also, in data set [7] (0.3 mg/kg p.o.), the “Latency to Find Hidden Platform, TRIAL 2” value is 43.6 (7.9) SECONDS; the “Path Length to Find Hidden Platform, TRIAL 1” value was 14.5 (1.8) METERS; the “Path Length to Find Hidden Platform, TRIAL 2” value is given as 12.4 (2.3) METERS; the “Path Length to Find Hidden Platform, TRIAL 3” value is on record as 14.4 (2.7) METERS. Further, in data set [7] (0.3 mg/kg p.o.), the “Path Length to Find Hidden Platform, TRIAL 4” value is 10.4 (2.4) METERS and the “Path Length to Find Hidden Platform, TRIAL 5” value is recorded as 4.3 (0.6) METERS. Besides, in data set [7] (1.0 mg/kg p.o.), the “Latency to Find Hidden Platform, TRIAL 3” value stood at 59.99 s; the “Latency to Find Hidden Platform, TRIAL 4” value worked out at 34.3 s; the “Latency to Find Hidden Platform, TRIAL 5” value is 19.8 s; the “Latency to Find Hidden Platform, TRIAL 1” value is on record as 62.4 (7.7) SECONDS. Further, in [7] (1.0 mg/kg p.o.), the “Latency to Find Hidden Platform, TRIAL 2” value was 62.2 (8.5) SECONDS; the “Path Length to Find Hidden Platform, TRIAL 1” value was 11.1 (1.4) METERS; the “Path Length to Find Hidden Platform, TRIAL 2” value is recorded as 16.2 (2.2) METERS; the “Path Length to Find Hidden Platform, TRIAL 3” value was 16.65 (2.2) METERS. In data set [7] (1.0 mg/kg p.o.), the “Path Length to Find Hidden Platform, TRIAL 4” value is 9.7 (1.9) METERS and the “Path Length to Find Hidden Platform, TRIAL 5” value is recorded as 5.29 (1.5) METERS. Moreover, the “functional recovery, in particular recovery in a cognitive skill” value in [7] (administered daily to rats from 2 days after the stroke for 14 days) was “facilitates functional recovery”.
Turning to `CN(CCc1ccc(Cl)c(Cl)c1)C1CCCCC1N1CCCC1` (stereo not drawn) [VIII], in [2], the “performance in rotating pole test versus control” value is listed as “perform better than the group 1 control animals”. Also, the “performance in cylinder test versus control” value in [3] is “perform better than the group 1 control animals”.
Regarding `COc1cccc2c1CCC(=O)N2CCCN1CCN(c2cccc(Cl)c2)CC1` [VII], in data set [2], the “performance in rotating pole test versus control” value is on record as “perform better than the group 1 control animals”. The “performance in cylinder test versus control” value in data set [3] is recorded as “perform better than the group 1 control animals”.
For `CCC(C/C=C/c1ccccc1)(c1ccccc1)N(C)CC1CC1` (stereo not drawn) [VI], the “performance in rotating pole test versus control” value in data set [2] is on record as “perform better than the group 1 control animals”. Besides, the “performance in cylinder test versus control” value in data set [3] is “perform better than the group 1 control animals”.
As for `CCN(CC)CCOC(=O)C1(c2ccccc2)CCCC1` [caramiphen], in data set [1], the “protective effects” value was “protective effects against NMDA-induced toxicity and seizures”.
On to `COCCCC/C(=N\OCCN)c1ccc(C(F)(F)F)cc1` [compound I], for which, in [2], the “performance in rotating pole test versus control” value is “perform better than the group 1 control animals”. Besides, the “performance in cylinder test versus control” value in data set [3] is “perform better than the group 1 control animals”.
With `O=C(CCCN1CCC(O)(c2ccc(Cl)cc2)CC1)c1ccc(F)cc1` [haloperidol], in data set [1], the “protective effects” value is “protective effects against NMDA-induced toxicity and seizures”.
On to `OCCN1CCN(CCCN2c3ccccc3C=Cc3ccccc32)CC1` [opipramol], for which the protection against ischemia entry with ischemia in gerbils is “protect against ischemia in gerbils”. For the same compound, the “modulation of NMDA-type glutamate receptors” value in data set [8] is “modulate the NMDA-type of glutamate receptors”.
